{"source": "patent US20240002547A1", "about": "“T[…]-TARGETING CONSTRUCTS AND USES THEREOF” (AEBI LTD., priority 2016, published 2024)", "key": {"[1]": {"target": "human Epidermal Growth Factor Receptor (EGFR) (Homo sapiens, UniProt P00533)", "assay": "Screening of cyclopeptides binding to human EGFR", "experimental": "Using the technique described in WO 2007/010525, a series of new peptides (cyclopeptides) binding to human Epidermal Growth Factor Receptor (EGFR) were generated and tested. After identification of several potential peptide, a few further cycles of optimization were performed."}, "human EGFR": {"target": "T1, human EGFR (Homo sapiens, UniProt P00533)", "T1 construct": "human EGFR in human epidermoid carcinoma cell line A431; endogenous in cells; host or cells: A431", "assay": "EGFR autophosphorylation ELISA in A431 cells", "type": "cell-based", "experimental": "The effect of several peptides on the phosphorylation levels of human EGFR in human epidermoid carcinoma cell line A431 was assessed by ELISA test. Briefly, exponentially growing A431 cell culture were detaches from the flask with 0.25% trypsin/EDTA solution, and 200 μl of cell suspension were transferred to 96-well plates at the concentration of 2×10^5 cells/ml and grown for about 3 days. Following medium exchange, 50 μl EGF dilutions and EGF+peptides (50 ng/ml and 0.2 mg/ml, respectively) were added. The plate was incubated for 7.5 min at 37° C. EGF-containing medium was removed and the cells were fixed by 150 ul of fixing solution and incubated for 20 min. at room temperature, following which the plate was washed 2 times with triton washing solution. The level of phosphorylates was assessed by incubation with phospho-EGFR (Tyr1045) antibody as a primary antibody and Anti-rabbit IgG as a secondary antibody. […] The normalized percent of inhibition (of the EGFR auto-phosphorylation is presented in FIG. 11 and Table 4. The normalized percent of inhibition is calculated as the fluorescence signal of the test item divided by the fluorescence signal of the control that contains no test item, with the same concentration of EGF.\nEfficacy of different concentration of the selected peptide was assessed by ELISA in a similar was as in Example 12. […]"}, "[2]": {"assay": "In vivo stability of fluorescently marked peptide in blood after tail vein injection", "conditions": "mice", "experimental": "The stability of the fluorescently marked peptide E13.3 alone or bound to 8-armed PEG was evaluated in vivo by injecting the compounds to the tail vein of mice. The blood of the animals was analyzed for the presence of the peptide (fluorescence) at different time intervals. It can be clearly seen from the result presented in FIG. 14 that t0.5 of the free peptide is much shorter (about several minutes) than that of the peptides bound to PEG (t0.5 of about 3.5 hours)."}, "eEF2": {"target": "T2, eEF2 (Homo sapiens, UniProt P13639)", "T2 construct": "in vitro transcription/translation system using HeLa Lysate system; host or cells: HeLa lysate (1-Step Human Coupled IVT Kit-DNA)", "assay": "in vitro transcription/translation system (HeLa lysate, 1-Step Human Coupled IVT Kit, pCFE-GFP DNA)", "type": "biochemical", "conditions": "peptide 5 μM; 4 hr at 30° C.; versus positive control without peptide and non eEF2-binding control peptide", "experimental": "The effect of Tox1 and Tox2 was tested in the in vitro transcription/translation system using HeLa Lysate system 1-Step Human Coupled IVT Kit-DNA (ThermoFisher Scientific). The following peptides were tested: GW (Tox1), DRB RB, TB2 (Tox2), and BW. In addition, a non eEF2-binding control peptide, GR, was also tested.\nThe IVT Kit components were mixed, and one portion was taken out to serve as a negative control. The rest of the mix was supplemented with pCFE-GFP DNA. This DNA, when transcribed and translated gives a fluorescence protein, GFP. The extent of fluorescence gives a measure of the extent of protein synthesis.\nThe mix was split into […] aliquots. Each aliquot was supplemented with lml of one concentration of a specific peptide. A positive control was supplemented with lml of PBS. The reaction mixtures were incubated 4 hr at 30° C.\n[…] of PBS were added to each reaction mixtures. The mixtures were transferred to a 96 well black ELISA plate, and the fluorescence was measured at ex/em 482/512 nm."}, "[3]": {"target": "T3, eEF2 (Human; Yeast derived) (Homo sapiens, UniProt P13639)", "T3 construct": "host or cells: yeast", "assay": "ELISA binding of phage-displayed peptides to eEF2 or BSA", "conditions": "M13 phages expressing the peptide; read after 1.5 min and 30 min; BSA negative control", "experimental": "Binding of Tox 1 and Tox2 to eEF2 was tested by ELISA using eEF2 or BSA as ligands.\n0.25 μg of target proteins, eEF2 (Human; Yeast derived) or BSA (negative control) were applied to several wells of maxisorp plate (NUNC) in 50 μl PBS and incubated over night at 4° C. The solutions were removed, and each well was supplemented with 280 μl blocking solution (BSA 2 mg/ml). The plate was incubated 1 hr at 25° C.\nTo 1.5 ml tubes 100 μl of blocking solution+10^9 pfu (plaque forming units) of M13 phages that express the following peptides: eEF2-binding: RB, LBR1, TB2 (Tox2), Y02, GW (Tox1), DRB, PY, BW were added. The plate was incubated 1 hr at 25° C. The solution were discarded and the wells were washed 7 times with 280 μl washing solution (Tween 20 0.05%).\nEach well was supplemented with 50 μl of HRP/Anti-M13 Monoclonal Conjugate (GE Healthcare) diluted 1:5000. The plate was incubated 1 hr at 25° C. The solutions were discarded and the wells were washed 7 times with 280 μl washing solution (Tween 20 0.05%). Each well was supplemented with 50 μl of TMB (T0440; Sigma).\nThe plate was photographed using a scanner after incubation time of 1.5 min and 30 min."}, "human PD-L1": {"target": "human PD-L1 (Homo sapiens, UniProt Q9NZQ7)", "sequence (Q9NZQ7 19-290)": "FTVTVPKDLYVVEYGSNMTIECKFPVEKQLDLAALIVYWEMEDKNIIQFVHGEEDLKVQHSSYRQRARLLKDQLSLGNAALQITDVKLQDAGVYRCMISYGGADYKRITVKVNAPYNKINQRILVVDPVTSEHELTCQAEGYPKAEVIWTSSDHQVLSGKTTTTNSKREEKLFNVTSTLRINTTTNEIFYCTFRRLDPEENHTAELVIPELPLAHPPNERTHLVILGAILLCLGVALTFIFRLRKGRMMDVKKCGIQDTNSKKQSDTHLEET", "assay": "Screening of cyclopeptides binding to human PD-L1", "experimental": "Using the technique described in WO 2007/010525, a series of new peptides (cyclopeptides) binding to binding to a human PD-L1 were generated and tested. After identification of several potential peptides, a few further cycles of optimization were performed."}, "FaDu": {"system": "FaDu", "assay": "Viability of FaDu cells, alamarBlue", "type": "cell-based, human", "conditions": "all tested concentrations", "experimental": "(§1) The anti-cancer activity of E13.3 was assessed using several cancer cell lines (A549—human lung carcinoma cell line and FaDu—human pharyngeal carcinoma cell line). The cell cultures were incubated in the presence or absence of E13.3 (at different concentrations) and tested for viability using alamarBlue reagent. The results are presented on FIG. 15."}, "A549": {"system": "A549", "assay": "Viability of A549 cells, alamarBlue", "type": "cell-based, human", "conditions": "all tested concentrations", "experimental": "as §1"}, "NCI-H1650 tumor": {"system": "NCI-H1650 tumor", "assay": "Accumulation of fluorescein-labelled E13.3-PEG in kidney, liver and tumor of xenograft mice", "type": "in vivo", "experimental": "E13.3-PEG was labeled with Flourescein and injected IV to Xenograft mice bearing subcutaneous NCI-H1650 tumor (lung cancer). Following anesthesia, kidney, liver and tumor were collected at specific time points and the fluorescence was measured."}, "A431 cells": {"system": "A431 cells", "assay": "Toxicity of PEG constructs on A431 cells, microscope images after 48 hours", "type": "cell-based, human", "experimental": "(§2) A construct comprising a multi-arm-PEG scaffold bound to E13.3 targeting peptide having the sequence SEQ ID NO: 1 ([…]) and a toxin selected from BIMBH3 (referred also as BIM and having the sequence SEQ ID NO: 5 […]) or a combination of Tox1 and Tox2 was generated. The scaffolds were prepared as described in Example 5 and is denoted as PEG-E13.3-Tox1-Tox2 and PEG-13.3-BIM, accordingly\n(§3) A431 cells (human squamous carcinoma express about 100,000 copies of EGFR on each cell) and MCF-7 cells (breast cancer cell expressing about 3,000 copies of EGFR on each cell) were thawed and cultivated to achieve exponentially growing cultures. Cells were collected, counted and seeded at the density of 7,000 cells/well and 5,000 cells/well, respectively, in a 96 well tissue culture plate.\n(§4) The plates were incubated until the next day at the following conditions: 37±1° C., humidified, and 5±0.5% CO2/air, to enable cells adherence to the wells.\n(§5) The cell viability of A549 cell was tested using Alamar Blue viability assay. At the next day following the seeding, Growth Media was replaced with 200 μl Assay Media that contained 2% FBS and Test Items at different concentrations of the construct (1, 3 and 8 μM), or Vehicle Control (PBS; concentration-0). Plates were incubated at 37±1° C., humidified 5±0.5% CO2/air. […]"}, "MCF-7 cells": {"system": "MCF-7 cells", "assay": "Toxicity of PEG constructs on MCF-7 cells, microscope images after 48 hours", "type": "cell-based, human", "experimental": "as §2, §3, §4, §5"}, "[4]": {"conditions": "1, 3 and 8 μM, 48 hours, images"}}, "note": "Positions of bridges follow the written chain, without caps; N, C: chain ends. No end group written: not given here."}
{"substance": "CHPGDKQEDPNCLQADK [E13.3]", "values": [{"measurement": "affinity to the receptor at its binding site", "setting": "[1]", "result": "high affinity"}, {"measurement": "Normalized Percent of EGFR autophosphorylation inhibition", "setting": "human EGFR; A431, EGF 50 ng/ml, peptide 0.2 mg/ml, 7.5 min at 37° C., phospho-EGFR (Tyr1045)", "result": 99.4, "unit": "%"}, {"measurement": "IC50", "setting": "human EGFR; Example 12, read-out: calculated IC50 of EGFR autophosphorylation inhibition", "result": 2, "unit": "µM"}, {"measurement": "t0.5 in blood", "setting": "[2]; free peptide", "result": "about several"}]}
{"substance": "Cys-Arg-Arg-Gly-Ser-Arg-Ala-Ser-Gly-Ala-His-Cys (CRRGSRASGAHC; disulfide 1-12) [Tox2]", "values": [{"measurement": "GFP fluorescence (extent of protein synthesis)", "setting": "eEF2", "result": "highest effect"}, {"measurement": "binding to eEF2 (ELISA signal)", "setting": "[3]", "result": "strongest effect"}]}
{"substance": "Cys-Ser-Ala-Arg-Trp-Gly-Pro-Thr-Met-Pro-Trp-Cys (CSARWGPTMPWC; disulfide 1-12) [Tox1]", "values": [{"measurement": "GFP fluorescence (extent of protein synthesis)", "setting": "eEF2", "result": "highest effect"}]}
{"substance": "CysGluGlyLeuProAlaAspTrpAlaAlaAlaCys (CEGLPADWAAAC; also: cyclic, mode not given here) [PD-L1-GR]", "values": [{"measurement": "affinity to the receptor at its binding site", "setting": "human PD-L1", "result": "high affinity"}]}
{"substance": "E13.3-PEG: E13.3 bound to 8 arm PEG Succinimidyl Carboxymethyl Ester, MW 73,000 (Ac-CHPGDKQEDPNCLQADK; not fully specified; cysteine pairing not given here; also: one amine Dde-protected, site not given here)", "values": [{"measurement": "viability of cancer cells", "setting": "FaDu", "result": "successfully reduce the viability"}, {"measurement": "viability of cancer cells", "setting": "A549", "result": "successfully reduce the viability"}, {"measurement": "t0.5 in blood", "setting": "[2]; bound to 8-armed PEG", "result": "about 3.5 hours"}, {"measurement": "interaction with and internalization by cancer cells isolated from tumor", "setting": "NCI-H1650 tumor; 1 hour and 24 hour after IV injection", "result": "most of the cancer cells interact with E13.3-PEG and internalize the fluorescent peptide"}, {"measurement": "fluorescence in kidney and liver", "setting": "NCI-H1650 tumor; IV, NCI-H1650 xenograft mice", "result": "fast increase in the fluorescence in kidney and liver with a typical elimination curve afterwards"}, {"measurement": "fluorescence in tumor (cancer cells)", "setting": "NCI-H1650 tumor; IV, NCI-H1650 xenograft mice", "result": "accumulated in the cancer cells"}]}
{"substance": "PEG-E13.3-Tox1-Tox2: multi-arm-PEG scaffold bound to E13.3 targeting peptide and a combination of Tox1 and Tox2 (peptide 1 Ac-CHPGDKQEDPNCLQADK; peptide 2 CSARWGPTMPWC; peptide 3 CRRGSRASGAHC; not fully specified (bridges); cysteine pairing not given here; also: multi-arm PEG scaffold carrying E13.3, Tox1 and Tox2)", "values": [{"measurement": "effect on cell aggregates / proportion of dead cells", "setting": "A431 cells; [4]", "result": "proportion of dead cells increased"}, {"measurement": "potency of cell death compared with the BIM construct", "setting": "A431 cells; images at 48 hours", "result": "more potent"}, {"measurement": "effect on cell aggregates / proportion of dead cells", "setting": "MCF-7 cells; [4]", "result": "proportion of dead cells increased"}, {"measurement": "potency of cell death compared with the BIM construct", "setting": "MCF-7 cells; images at 48 hours", "result": "more potent"}]}
